Laboratory results taken from patent US9067914B1, “Tropomyosin-related kinase (TRK) inhibitors” (Genzyme Corporation, priority 2013, dated 2015).
Read-outs that look alike come from different tables or passages of the source.

How the values were obtained:
[1] = biological target: TrkA (Homo sapiens (Human), UniProt P04629); assay: TrkA activity, off-chip mobility shift assay (LabChip 3000); format: biochemical; conditions: 55 μM ATP (ATP Km); n/d = none detected
Text: (§1) Reagents and consumables were purchased from Sigma Aldrich, Carna Biosciences, or Caliper Life Sciences. All assay reaction conditions for IC50 determinations were within the linear range with respect to time and enzyme concentration. […] The LabChip 3000 separates and measures the fluorescent signal of fluorescein labeled peptide substrate and fluorescein labeled peptide product present in each well. Results are expressed as percent conversion by measuring peak height for both the substrate and product and dividing the product peak height by the sum of peak heights for both substrate and product.

[2] = biological target: TrkB (Homo sapiens (Human), UniProt Q16620); assay: TrkB activity, off-chip mobility shift assay (LabChip 3000); format: biochemical
Text: as §1

[3] = 70 μM ATP (ATP Km), n/d = none detected

Chain of TrkA (P04629 33-796): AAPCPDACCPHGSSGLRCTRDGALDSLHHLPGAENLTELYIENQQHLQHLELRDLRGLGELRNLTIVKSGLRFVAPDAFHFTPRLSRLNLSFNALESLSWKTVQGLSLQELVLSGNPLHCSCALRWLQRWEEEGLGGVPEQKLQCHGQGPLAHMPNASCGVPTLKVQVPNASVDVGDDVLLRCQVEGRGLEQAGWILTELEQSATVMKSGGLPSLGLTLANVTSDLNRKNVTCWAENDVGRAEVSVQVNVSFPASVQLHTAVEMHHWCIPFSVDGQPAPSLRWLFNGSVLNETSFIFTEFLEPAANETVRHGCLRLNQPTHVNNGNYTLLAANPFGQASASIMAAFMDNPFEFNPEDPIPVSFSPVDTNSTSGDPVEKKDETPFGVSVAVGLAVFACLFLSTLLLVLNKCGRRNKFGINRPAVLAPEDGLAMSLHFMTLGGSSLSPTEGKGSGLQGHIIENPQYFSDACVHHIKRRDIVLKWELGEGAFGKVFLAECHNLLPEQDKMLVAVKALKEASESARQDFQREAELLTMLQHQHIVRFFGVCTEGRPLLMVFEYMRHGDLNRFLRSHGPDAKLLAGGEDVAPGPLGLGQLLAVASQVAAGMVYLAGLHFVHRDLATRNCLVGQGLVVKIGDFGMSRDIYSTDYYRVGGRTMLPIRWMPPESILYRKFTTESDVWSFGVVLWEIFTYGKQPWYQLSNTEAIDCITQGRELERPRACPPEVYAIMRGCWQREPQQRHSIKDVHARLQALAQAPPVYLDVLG
Chain of TrkB (Q16620 32-822): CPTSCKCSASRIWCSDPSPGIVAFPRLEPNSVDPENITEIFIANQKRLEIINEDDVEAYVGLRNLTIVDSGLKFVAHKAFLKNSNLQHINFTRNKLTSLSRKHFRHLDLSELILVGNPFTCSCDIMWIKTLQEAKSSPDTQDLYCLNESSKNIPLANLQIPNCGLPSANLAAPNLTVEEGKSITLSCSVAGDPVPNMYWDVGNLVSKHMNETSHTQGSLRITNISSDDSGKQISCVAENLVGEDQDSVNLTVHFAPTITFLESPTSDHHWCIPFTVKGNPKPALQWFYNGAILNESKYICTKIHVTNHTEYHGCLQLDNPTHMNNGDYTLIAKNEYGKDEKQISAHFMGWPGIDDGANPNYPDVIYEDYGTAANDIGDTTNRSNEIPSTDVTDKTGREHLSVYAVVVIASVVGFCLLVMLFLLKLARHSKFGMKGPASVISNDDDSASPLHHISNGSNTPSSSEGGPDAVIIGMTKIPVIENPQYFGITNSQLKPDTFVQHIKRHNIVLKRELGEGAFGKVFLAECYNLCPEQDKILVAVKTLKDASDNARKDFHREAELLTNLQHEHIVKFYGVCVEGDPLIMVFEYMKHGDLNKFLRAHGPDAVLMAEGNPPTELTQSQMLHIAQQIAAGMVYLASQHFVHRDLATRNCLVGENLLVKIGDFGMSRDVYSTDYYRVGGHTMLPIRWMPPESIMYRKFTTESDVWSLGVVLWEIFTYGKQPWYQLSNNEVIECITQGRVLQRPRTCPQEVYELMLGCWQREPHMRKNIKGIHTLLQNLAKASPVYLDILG

Structure (SMILES)	IC50 [1] [nM]	IC50 [2, 3] [nM]	IC50 [2] [nM]
COc1cc([C@H](C)n2c(N)nc3cc(-c4cnn(C)c4)cnc32)ccc1OCc1ccc(C(F)(F)F)cc1 (single isomer, unassigned) [Ex. 3-49-6a, 3-(1-(3-methoxy-4-((4-(trifluoromethyl)benzyl)oxy)phenyl)ethyl)-6-(1-methyl-1H-pyrazol-4-yl)-3H-imidazo[4,5-b]pyridin-2-amine]	0.3		
COc1cc([C@@H](C)n2c(N)nc3cc(-c4cnn(C)c4)cnc32)ccc1OCc1ccc(C(F)(F)F)cc1 (single isomer, unassigned) [Ex. 3-49-6b, 3-(1-(3-methoxy-4-((4-(trifluoromethyl)benzyl)oxy)phenyl)ethyl)-6-(1-methyl-1H-pyrazol-4-yl)-3H-imidazo[4,5-b]pyridin-2-amine]	5		
CCC(Oc1ccc(Cn2c(N)nc3cc(-c4cnn(C)c4)cnc32)cc1OC)c1ccc(OC)nc1 (stereo not shown) [3-34, 3-(3-methoxy-4-(1-(6-methoxypyridin-3-yl)propoxy)benzyl)-6-(1-methyl-1H-pyrazol-4-yl)-3H-imidazo[4,5-b]pyridin-2-amine]	32	26	
COc1ccc(COc2ccc(Cn3c(N)nc4cc(-c5cnn(C)c5)ccc43)cc2OC)cc1 [Ex. 3-1, 1-(3-Methoxy-4-((4-methoxybenzyl)oxy)benzyl)-5-(1-methyl-1H-pyrazol-4-yl)-1H-benzo[d]imidazol-2-amine]	1	0.5	
COc1ccc(COc2ccc(Cn3c(N)nc4cc(-c5cncnc5)ccc43)cc2OC)cc1 [Ex. 3-2-1, 1-(3-Methoxy-4-((4-methoxybenzyl)oxy)benzyl)-5-(pyrimidin-5-yl)-1H-benzo[d]imidazol-2-amine]	86	23	
COc1ccc(COc2ccc(Cn3c(N)nc4cc(-c5ccncc5)ccc43)cc2OC)cc1 [Ex. 3-2-2, 1-(3-Methoxy-4-((4-methoxybenzyl)oxy)benzyl)-5-(pyridine-4-yl)-1H-benzo[d]imidazol-2-amine]	8	4	
COc1ccc(COc2ccc(Cn3c(N)nc4cc(-c5cnn(CCN6CCOCC6)c5)ccc43)cc2OC)cc1 [Ex. 3-2-3, 1-(3-Methoxy-4-((4-methoxybenzyl)oxy)benzyl)-5-(1-(2-morpholinoethyl)-1H-pyrazol-4-yl)-1H-benzo[d]imidazol-2-amine]	3	1	
COc1ccc(COc2ccc(Cn3c(N)nc4cc(-c5ccc(P(C)(C)=O)nc5)ccc43)cc2OC)cc1 [Ex. 3-3, (5-(2-Amino-1-(3-methoxy-4-((4-methoxybenzyl)oxy)benzyl)-1H-benzo[d]imidazol-5-yl)pyridin-2-yl)dimethylphosphine oxide]	7	6	
COc1ccc(COc2ccc(Cn3cnc4cc(-n5cc(C6CCCNC6)nn5)ccc43)cc2OC)cn1 (stereo not shown) [Ex. 3-6, 1-(3-Methoxy-4-((6-methoxypyridin-3-yl)methoxy)benzyl)-5-(4-(piperidin-3-yl)-1H-1,2,3-triazol-1-yl)-1H-benzo[d]imidazole]	175	86	
COc1ccc(COc2ccc(Cn3cnc4cc(C5CCNCC5)ccc43)cc2OC)cn1 [Ex. 3-8, 1-(3-Methoxy-4-((6-methoxypyridin-3-yl)methoxy)benzyl)-5-(piperidin-4-yl)-1H-benzo[d]imidazole]	11100	3460	
COc1ccc(COc2ccc(Cn3cnc4cc(N5CCOCC5)ccc43)cc2OC)cn1 [Ex. 3-9, 4-(1-(3-Methoxy-4-((6-methoxypyridin-3-yl)methoxy)benzyl)-1H-benzo[d]imidazol-5-yl)morpholine]	793		257
COc1ccc(COc2ccc(Cn3cnc4cc(N5CCC(C(C)(C)N)CC5)ccc43)cc2OC)cn1 [Ex. 3-10, 2-(1-(1-(3-Methoxy-4-((6-methoxypyridin-3-yl)methoxy)benzyl)-1H-benzo[d]imidazol-5-yl)piperidin-4-yl)propan-2-amine]	652	574	
